According to ChEMBL document CHEMBL1138129, “A novel nicotinic acetylcholine receptor antagonist radioligand for PET studies” (Bioorg Med Chem Lett, 2006):

How the values were obtained:
[1] = target: Neuronal acetylcholine receptor; alpha4/beta2 (Homo sapiens, UniProt P17787+P43681); assay: Displacement of [3H]epibatidine from alpha-4-beta-2 ACHR; type: protein-complex assay
[2] = Lipophilicity as measured by Log P; type: physicochemical; settings: octanol/water
[3] = Protein binding in baboon plasma; type: ADME, Papio; settings: read-out: PPB (converted)
[4] = Half life of the compound; type: ADME

Neuronal acetylcholine receptor; alpha4/beta2, sequence (P17787 whole entry): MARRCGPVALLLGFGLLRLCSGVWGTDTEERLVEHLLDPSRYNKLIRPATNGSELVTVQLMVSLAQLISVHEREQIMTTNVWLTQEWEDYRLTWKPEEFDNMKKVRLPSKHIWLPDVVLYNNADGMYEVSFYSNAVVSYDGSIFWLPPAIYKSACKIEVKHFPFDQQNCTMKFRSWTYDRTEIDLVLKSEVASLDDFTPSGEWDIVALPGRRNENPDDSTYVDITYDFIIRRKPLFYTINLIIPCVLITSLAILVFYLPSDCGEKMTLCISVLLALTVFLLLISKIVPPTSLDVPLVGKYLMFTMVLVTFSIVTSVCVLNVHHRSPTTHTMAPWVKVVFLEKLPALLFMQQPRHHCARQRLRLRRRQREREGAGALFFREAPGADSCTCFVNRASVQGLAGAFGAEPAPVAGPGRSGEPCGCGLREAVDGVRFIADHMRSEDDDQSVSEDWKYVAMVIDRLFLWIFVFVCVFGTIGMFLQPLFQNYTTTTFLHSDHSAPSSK
Neuronal acetylcholine receptor; alpha4/beta2, sequence (P43681 whole entry): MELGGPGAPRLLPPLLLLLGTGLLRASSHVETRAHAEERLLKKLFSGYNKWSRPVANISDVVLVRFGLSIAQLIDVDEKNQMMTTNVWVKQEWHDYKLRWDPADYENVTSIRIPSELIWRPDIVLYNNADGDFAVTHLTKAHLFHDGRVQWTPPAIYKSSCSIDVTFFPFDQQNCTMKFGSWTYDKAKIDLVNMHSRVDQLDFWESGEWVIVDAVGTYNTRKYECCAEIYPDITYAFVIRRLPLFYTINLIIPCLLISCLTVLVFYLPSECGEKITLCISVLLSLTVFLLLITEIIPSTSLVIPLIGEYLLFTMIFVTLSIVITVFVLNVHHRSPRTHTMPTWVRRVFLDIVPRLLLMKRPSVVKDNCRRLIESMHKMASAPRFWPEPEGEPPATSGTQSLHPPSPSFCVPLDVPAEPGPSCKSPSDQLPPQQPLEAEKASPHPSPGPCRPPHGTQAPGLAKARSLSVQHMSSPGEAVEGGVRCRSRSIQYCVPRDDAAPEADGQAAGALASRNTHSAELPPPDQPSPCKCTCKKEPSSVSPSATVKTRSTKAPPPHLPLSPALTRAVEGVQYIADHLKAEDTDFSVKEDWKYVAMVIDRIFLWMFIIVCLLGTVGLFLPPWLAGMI

For [11CH3]N1C2CCC1C(c1cncc(I)c1)C2 (centres undefined), the Ki [1] was 0.029 µM, the logP [2] was 1.09 and the fraction unbound [3] was 0.6. For the same molecule, the half-life [4] was 1 h.
